Literature values in US20040023897A1, “Methods for preventing or treating disease mediated by toxin-secreting bacteria” (priority 2001, published 2004).

Assays:
[1] = tested on: V-ATPases
[2] = tested on: V-ATPases; remark: listed apart in the source

SMILES | concentration at which reversible inhibition of proton translocation occurs [1] | also measured
C/C=C/[C@H]1O[C@@](O)([C@@H](C)[C@H](O)[C@H](C)[C@H]2OC(=O)/C(OC)=C/C(C)=C/[C@@H](C)[C@@H](O)[C@@H](CC)[C@@H](O)[C@H](C)C/C(C)=C/C=C/[C@@H]2OC)C[C@@H](O[C@H]2C[C@@H](O)[C@H](OC(N)=O)[C@@H](C)O2)[C@@H]1C [concanamycin A] | sub-micromolar concentrations | –
CO/C1=C\C(C)=C\[C@@H](C)[C@@H](O)[C@@H](C)C/C(C)=C/C=C/[C@H](OC)[C@@H]([C@@H](C)[C@@H](O)[C@H](C)[C@@]2(O)C[C@@H](O)[C@H](C)[C@@H](C(C)C)O2)OC1=O [Bafilomycin A1] | sub-micromolar concentrations | –
C(=NC1CCCCC1)=NC1CCCCC1 [DCCD, N,N′-dicyclohexylcarbodiimide] | – | inhibition of proton pumping ([1]; micromolar concentrations of DCCD): complete and irreversible inhibition
CCN1C(=O)C=CC1=O [N-ethylmaleimide] | – | concentration at which inhibition of ATP hydrolysis occurs [2]: low micromolar concentrations
